Measured values taken from US12291519B2, “2-hydroxycycloalkane-1-carbamoyl” (Idorsia Pharmaceuticals Ltd, priority 2019, dated 2025).

How the values were obtained:
human Gal-3 (hGal-3) = human Gal-3 (hGal-3) (Homo sapiens (Human), UniProt P17931); test: Competitive binding assay: biotinylated hGal-3 binding to microplate-adsorbed asialofetuin (ASF); conditions: Activity on hGal-3; binding of biotinylated hGal-3 to ASF-coated plates; mean values
Method in brief: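 Serially diluted compounds competed with biotinylated human Gal-3 for binding to plate-adsorbed asialofetuin over 3 h at 4 °C. Bound Gal-3 was detected with streptavidin-peroxidase (80 ng/mL, 1 h, 4 °C) and ABTS substrate. IC50 values are means of several measurements.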

human Gal-1 (hGal-1) = test: Competitive binding assay: biotinylated hGal-1 binding to microplate-adsorbed asialofetuin (ASF); conditions: Activity on hGal-1; binding of biotinylated hGal-1 to ASF-coated plates; mean values
Sequence of human Gal-1 (hGal-1) (P09382 2-135 limits assumed): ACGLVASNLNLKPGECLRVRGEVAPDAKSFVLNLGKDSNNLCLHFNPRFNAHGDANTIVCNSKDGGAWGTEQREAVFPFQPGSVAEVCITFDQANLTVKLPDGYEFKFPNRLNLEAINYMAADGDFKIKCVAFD
Method in brief: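 Biotinylated hGal-1 (300–1000 ng/mL; optionally a cysteine-free all-serine variant) incubated 3 h at 4 °C with compound on asialofetuin-coated plates, then streptavidin-peroxidase 1 h at 4 °C. ABTS readout at OD 410 nm after 30–45 min; IC50 given as mean of several runs.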

Sequence of human Gal-3 (hGal-3) (P17931 whole entry): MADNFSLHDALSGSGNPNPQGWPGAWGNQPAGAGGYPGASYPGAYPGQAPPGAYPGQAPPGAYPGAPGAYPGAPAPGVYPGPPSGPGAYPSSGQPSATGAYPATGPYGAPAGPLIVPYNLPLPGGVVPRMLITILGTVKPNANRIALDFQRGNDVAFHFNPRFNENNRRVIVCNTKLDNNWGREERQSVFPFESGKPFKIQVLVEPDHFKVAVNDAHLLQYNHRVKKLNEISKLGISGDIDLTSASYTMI

CO[C@@H]1[C@@H](n2cc(-c3ccc(C#N)c(F)c3)nn2)[C@@H](O)[C@@H](CO)O[C@H]1C(=O)N(c1cc(Cl)cc(C#N)c1)[C@H]1CCCC[C@@H]1O [Example 181, (2R,3R,4S,5R,6R)-N-(3-chloro-5-cyanophenyl)-4-(4-(4-cyano-3-fluorophenyl)-1H-1,2,3-triazol-1-yl)-5-hydroxy-N-((1S,2S)-2-hydroxycyclohexyl)-6-(hydroxymethyl)-3-methoxytetrahydro-2H-pyran-2-carboxamide]
IC50 (human Gal-3 (hGal-3)): 29 nM | IC50 (human Gal-1 (hGal-1)): 618 nM

CO[C@@H]1[C@@H](n2cc(-c3ccc(Cl)c(OC(F)(F)F)c3)nn2)[C@@H](O)[C@@H](CO)O[C@H]1C(=O)N(c1cc(Cl)cc(C#N)c1)[C@H]1CCCC[C@@H]1O [Example 185, (2R,3R,4S,5R,6R)-4-(4-(4-chloro-3-(trifluoromethoxy)phenyl)-1H-1,2,3-triazol-1-yl)-N-(3-chloro-5-cyanophenyl)-5-hydroxy-N-((1S,2S)-2-hydroxycyclohexyl)-6-(hydroxymethyl)-3-methoxytetrahydro-2H-pyran-2-carboxamide]
IC50 (human Gal-3 (hGal-3)): 232 nM | IC50 (human Gal-1 (hGal-1)): 1370 nM

CO[C@@H]1[C@@H](n2cc(-c3ccc(Cl)c(Cl)c3)nn2)[C@@H](O)[C@@H](CO)O[C@H]1C(=O)N(c1cc(Cl)cc(C#N)c1)[C@H]1CCCC[C@@H]1O [Example 186, (2R,3R,4S,5R,6R)-N-(3-chloro-5-cyanophenyl)-4-(4-(3,4-dichlorophenyl)-1H-1,2,3-triazol-1-yl)-5-hydroxy-N-((1S,2S)-2-hydroxycyclohexyl)-6-(hydroxymethyl)-3-methoxytetrahydro-2H-pyran-2-carboxamide]
IC50 (human Gal-3 (hGal-3)): 17 nM | IC50 (human Gal-1 (hGal-1)): 210 nM

CO[C@@H]1[C@@H](n2cc(-c3ccc(Cl)c(Cl)c3)nn2)[C@@H](O)[C@@H](CO)O[C@H]1C(=O)N(c1cc(F)cc(C#N)c1)[C@H]1CCCC[C@@H]1O [Example 187, (2R,3R,4S,5R,6R)-N-(3-cyano-5-fluorophenyl)-4-(4-(3,4-dichlorophenyl)-1H-1,2,3-triazol-1-yl)-5-hydroxy-N-((1S,2S)-2-hydroxycyclohexyl)-6-(hydroxymethyl)-3-methoxytetrahydro-2H-pyran-2-carboxamide]
IC50 (human Gal-3 (hGal-3)): 37 nM | IC50 (human Gal-1 (hGal-1)): 359 nM

CO[C@@H]1[C@@H](n2cc(-c3ccc(Cl)c(Cl)c3)nn2)[C@@H](O)[C@@H](CO)O[C@H]1C(=O)N(c1cc(Cl)cc(Cl)c1)[C@H]1CCCC[C@@H]1O [Example 189, (2R,3R,4S,5R,6R)-N-(3,5-dichlorophenyl)-4-(4-(3,4-dichlorophenyl)-1H-1,2,3-triazol-1-yl)-5-hydroxy-N-((1S,2S)-2-hydroxycyclohexyl)-6-(hydroxymethyl)-3-methoxytetrahydro-2H-pyran-2-carboxamide]
IC50 (human Gal-3 (hGal-3)): 11 nM | IC50 (human Gal-1 (hGal-1)): 257 nM

CO[C@@H]1[C@@H](n2cc(-c3cc(C)cc(F)c3)nn2)[C@@H](O)[C@@H](CO)O[C@H]1C(=O)N(c1cc(Cl)cc(C#N)c1)[C@H]1CCCC[C@@H]1O [Example 190, (2R,3R,4S,5R,6R)-N-(3-chloro-5-cyanophenyl)-4-(4-(3-fluoro-5-methylphenyl)-1H-1,2,3-triazol-1-yl)-5-hydroxy-N-((1S,2S)-2-hydroxycyclohexyl)-6-(hydroxymethyl)-3-methoxytetrahydro-2H-pyran-2-carboxamide]
IC50 (human Gal-3 (hGal-3)): 17 nM | IC50 (human Gal-1 (hGal-1)): 239 nM

CO[C@@H]1[C@@H](n2cc(-c3ccc4nc(C)sc4c3)nn2)[C@@H](O)[C@@H](CO)O[C@H]1C(=O)N(c1cc(Cl)cc(Cl)c1)[C@H]1CCCC[C@@H]1O [Example 191, (2R,3R,4S,5R,6R)-N-(3,5-dichlorophenyl)-5-hydroxy-N-((1S,2S)-2-hydroxycyclohexyl)-6-(hydroxymethyl)-3-methoxy-4-(4-(2-methylbenzo[d]thiazol-6-yl)-1H-1,2,3-triazol-1-yl)tetrahydro-2H-pyran-2-carboxamide]
IC50 (human Gal-3 (hGal-3)): 41 nM | IC50 (human Gal-1 (hGal-1)): 1140 nM

CO[C@@H]1[C@@H](n2cc(-c3ccc(F)c4ccccc34)nn2)[C@@H](O)[C@@H](CO)O[C@H]1C(=O)N(c1cc(Cl)cc(Cl)c1)[C@H]1CCCC[C@@H]1O [Example 192, (2R,3R,4S,5R,6R)-N-(3,5-dichlorophenyl)-4-(4-(4-fluoronaphthalen-1-yl)-1H-1,2,3-triazol-1-yl)-5-hydroxy-N-((1S,2S)-2-hydroxycyclohexyl)-6-(hydroxymethyl)-3-methoxytetrahydro-2H-pyran-2-carboxamide]
IC50 (human Gal-3 (hGal-3)): 21 nM | IC50 (human Gal-1 (hGal-1)): 1140 nM

CO[C@@H]1[C@@H](n2cc(-c3nc(Cl)cs3)nn2)[C@@H](O)[C@@H](CO)O[C@H]1C(=O)N(c1cccc(F)c1F)[C@H]1CCCC[C@@H]1O [Example 193, (2R,3R,4S,5R,6R)-4-(4-(4-chlorothiazol-2-yl)-1H-1,2,3-triazol-1-yl)-N-(2,3-difluorophenyl)-5-hydroxy-N-((1S,2S)-2-hydroxycyclohexyl)-6-(hydroxymethyl)-3-methoxytetrahydro-2H-pyran-2-carboxamide]
IC50 (human Gal-3 (hGal-3)): 143 nM | IC50 (human Gal-1 (hGal-1)): 605 nM

CO[C@@H]1[C@@H](n2cc(-c3cc(F)c(F)c(F)c3)nn2)[C@@H](O)[C@@H](CO)O[C@H]1C(=O)N(c1ccccn1)[C@H]1CCCC[C@@H]1O [Example 194, (2R,3R,4S,5R,6R)-5-hydroxy-N-((1S,2S)-2-hydroxycyclohexyl)-6-(hydroxymethyl)-3-methoxy-N-(pyridin-2-yl)-4-(4-(3,4,5-trifluorophenyl)-1H-1,2,3-triazol-1-yl)tetrahydro-2H-pyran-2-carboxamide]
IC50 (human Gal-3 (hGal-3)): 11 nM | IC50 (human Gal-1 (hGal-1)): 2740 nM

O=C(O)CO[C@@H]1[C@@H](n2cc(-c3cc(F)c(F)c(F)c3)nn2)[C@@H](O)[C@@H](CO)O[C@H]1C(=O)N(c1cc(Cl)cc(Cl)c1)[C@H]1CCCC[C@@H]1O [Example 195, 2-(((2R,3R,4S,5R,6R)-2-((3,5-dichlorophenyl)((1S,2S)-2-hydroxycyclohexyl)carbamoyl)-5-hydroxy-6-(hydroxymethyl)-4-(4-(3,4,5-trifluorophenyl)-1H-1,2,3-triazol-1-yl)tetrahydro-2H-pyran-3-yl)oxy)acetic acid]
IC50 (human Gal-3 (hGal-3)): 9 nM | IC50 (human Gal-1 (hGal-1)): 96 nM

CO[C@@H]1[C@@H](n2cc(-c3cc(F)c(F)c(F)c3)nn2)[C@@H](O)[C@@H](CO)O[C@H]1C(=O)N(c1ccc2ccccc2c1)[C@H]1CCCC[C@@H]1O [Example 197, (2R,3R,4S,5R,6R)-5-hydroxy-N-((1S,2S)-2-hydroxycyclohexyl)-6-(hydroxymethyl)-3-methoxy-N-(naphthalen-2-yl)-4-(4-(3,4,5-trifluorophenyl)-1H-1,2,3-triazol-1-yl)tetrahydro-2H-pyran-2-carboxamide]
IC50 (human Gal-3 (hGal-3)): 97 nM | IC50 (human Gal-1 (hGal-1)): 6830 nM

CO[C@@H]1[C@@H](n2cc(-c3cc(F)c(F)c(F)c3)nn2)[C@@H](O)[C@@H](CO)O[C@H]1C(=O)N(c1cccc2ccccc12)[C@H]1CCCC[C@@H]1O [Example 198, (2R,3R,4S,5R,6R)-5-hydroxy-N-((1S,2S)-2-hydroxycyclohexyl)-6-(hydroxymethyl)-3-methoxy-N-(naphthalen-1-yl)-4-(4-(3,4,5-trifluorophenyl)-1H-1,2,3-triazol-1-yl)tetrahydro-2H-pyran-2-carboxamide]
IC50 (human Gal-3 (hGal-3)): 117 nM | IC50 (human Gal-1 (hGal-1)): > 100000 nM

CO[C@@H]1[C@@H](n2cc(-c3cc(F)c(F)c(F)c3)nn2)[C@@H](O)[C@@H](CO)O[C@H]1C(=O)N(c1cc(C)n(C)n1)[C@H]1CCCC[C@@H]1O [Example 199, (2R,3R,4S,5R,6R)-N-(1,5-dimethyl-1H-pyrazol-3-yl)-5-hydroxy-N-((1S,2S)-2-hydroxycyclohexyl)-6-(hydroxymethyl)-3-methoxy-4-(4-(3,4,5-trifluorophenyl)-1H-1,2,3-triazol-1-yl)tetrahydro-2H-pyran-2-carboxamide]
IC50 (human Gal-3 (hGal-3)): 321 nM | IC50 (human Gal-1 (hGal-1)): 18000 nM

CO[C@@H]1[C@@H](n2cc(-c3ccc(C)c(F)c3)nn2)[C@@H](O)[C@@H](CO)O[C@H]1C(=O)N(c1cc(Br)cc(C#N)c1)[C@H]1CCCC[C@@H]1O [Example 200, (2R,3R,4S,5R,6R)-N-(3-bromo-5-cyanophenyl)-4-(4-(3-fluoro-4-methylphenyl)-1H-1,2,3-triazol-1-yl)-5-hydroxy-N-((1S,2S)-2-hydroxycyclohexyl)-6-(hydroxymethyl)-3-methoxytetrahydro-2H-pyran-2-carboxamide]
IC50 (human Gal-3 (hGal-3)): 8 nM | IC50 (human Gal-1 (hGal-1)): 158 nM

CO[C@@H]1[C@@H](n2cc(-c3ccc(Cl)cc3)nn2)[C@@H](O)[C@@H](CO)O[C@H]1C(=O)N(c1cc(Cl)cc(C#N)c1)[C@H]1CCCC[C@@H]1O [Example 201, (2R,3R,4S,5R,6R)-N-(3-chloro-5-cyanophenyl)-4-(4-(4-chlorophenyl)-1H-1,2,3-triazol-1-yl)-5-hydroxy-N-((1S,2S)-2-hydroxycyclohexyl)-6-(hydroxymethyl)-3-methoxytetrahydro-2H-pyran-2-carboxamide]
IC50 (human Gal-3 (hGal-3)): 20 nM | IC50 (human Gal-1 (hGal-1)): 242 nM

CO[C@@H]1[C@@H](n2cc(-c3ccc(Br)cc3)nn2)[C@@H](O)[C@@H](CO)O[C@H]1C(=O)N(c1cc(Cl)cc(C#N)c1)[C@H]1CCCC[C@@H]1O [Example 202, (2R,3R,4S,5R,6R)-4-(4-(4-bromophenyl)-1H-1,2,3-triazol-1-yl)-N-(3-chloro-5-cyanophenyl)-5-hydroxy-N-((1S,2S)-2-hydroxycyclohexyl)-6-(hydroxymethyl)-3-methoxytetrahydro-2H-pyran-2-carboxamide]
IC50 (human Gal-3 (hGal-3)): 21 nM | IC50 (human Gal-1 (hGal-1)): 341 nM

CO[C@@H]1[C@@H](n2cc(-c3cc(F)c(N4CCOCC4)c(F)c3)nn2)[C@@H](O)[C@@H](CO)O[C@H]1C(=O)N(c1cc(Cl)cc(Cl)c1)[C@H]1CCCC[C@@H]1O [Example 203]
IC50 (human Gal-3 (hGal-3)): 24 nM | IC50 (human Gal-1 (hGal-1)): 678 nM
